Earlier results, collected in US20140023728A1, “Iodine Liquid Soap, Dispenser and Method” (priority 2012, published 2014).
Like-named read-outs stand apart in the source and are kept apart here.

II [Elemental iodine, iodine]
volume of water in which one gram dissolves (one gram in water at 20 degrees Celsius): 3450 mL | volume of water in which one gram dissolves (one gram in water at 50 degrees Celsius): 1280 mL
